Results as given in patent US20240408100A1, “TREATMENT METHODS FOR SUBJECTS HAVING CANCER WITH A DYSREGULATED MAPK AND/OR PI3K PATHWAY” (TAIHO PHARMACEUTICAL CO., LTD., priority 2021, published 2024).
Where two headings read alike, the source gives them in different places.

What was measured:
[1] = tested on: BT483; experiment: growth inhibition assay, NF1 mutant cell line; type: cell-based; settings: Homo sapiens, BT-483; BT483, ER+ breast, NF1 p.R1204W
Text: (§1) In order to investigate the growth inhibitory effect of Compound (1) in NF1 mutant cancer cell lines, the IC50 values of growth inhibition assay were obtained and compared then in Table 2.
(§2) In this experiment, to compare the growth inhibitory effect of Compound (1) with those of MAPK and PI3K signaling inhibitors, the IC50 values of trametinib (as a MEK inhibitor), and Alpelisib (as a PI3K inhibitor) were obtained and compared.

[2] = tested on: H1838; experiment: growth inhibition assay, NF1 mutant cell line; type: cell-based; settings: Homo sapiens, NCI-H1838; H1838, lung, NF1 p.N184Qfs*17
Text: as §1, §2

[3] = tested on: HCC202; experiment: growth inhibition assay, NF1 mutant cell line; type: cell-based; settings: HCC202, HER2+ breast, NF1 p.X465_splice
Text: as §1, §2

[4] = tested on: HCT116; experiment: growth inhibition assay, NF1 mutant cell line; type: cell-based; settings: Homo sapiens, HCT-116; HCT116, colon, NF1 p.P678Rfs*10, p.P388T
Text: as §1, §2

[5] = tested on: MDA-MB-175VII; experiment: growth inhibition assay, NF1 mutant cell line; type: cell-based; settings: Homo sapiens, ER+ breast, NF1 p.1679Dfs*21
Text: as §1, §2

[6] = tested on: MDA-MB-231; experiment: growth inhibition assay, NF1 mutant cell line; type: cell-based; settings: Homo sapiens; MDA-MB-231, TN breast, NF1 p.T467Hfs*3
Text: as §1, §2

[7] = tested on: MeWo; experiment: growth inhibition assay, NF1 mutant cell line; type: cell-based; settings: Homo sapiens, melanoma, NF1 p.Q1336*
Text: as §1, §2

[8] = tested on: RKO; experiment: growth inhibition assay, NF1 mutant cell line; type: cell-based; settings: Homo sapiens, colon
Text: as §1, §2

[9] = tested on: NF1 mutant cell lines; experiment: growth inhibition assay, summary over the panel; type: cell-based; settings: Homo sapiens; NF1 mutant cell lines except for MDA-MB-231 cells; read-out: IC50 value
Text: as §1, §2

[10] = tested on: AsPC-1; experiment: 3-day growth inhibition assay; type: cell-based; settings: Homo sapiens, ASPC1; AsPC-1 (Pancreas), KRAS p.G12D; read-out: Growth inhibition (IC50: nmol/L)
Procedure: (§3) The IC50 values for each compound in cell lines used in a series of animal experiments evaluating the antitumor effects of Compound (1) on KRAS mutant tumor xenografts were determined by a 3-day growth inhibition assay (Table 7).

[11] = tested on: LS180; experiment: 3-day growth inhibition assay; type: cell-based; settings: Homo sapiens; LS180 (Colon), KRAS p.G12D, PIK3CA p.H1047R, PTEN p.I67K; read-out: Growth inhibition (IC50: nmol/L)
Procedure: as §3

[12] = tested on: LU65; experiment: 3-day growth inhibition assay; type: cell-based; settings: Homo sapiens, Lu-65; LU65 (NSCLC), KRAS p.G12C; read-out: Growth inhibition (IC50: nmol/L)
Procedure: as §3

[13] = tested on: SW1573; experiment: 3-day growth inhibition assay; type: cell-based; settings: Homo sapiens; SW1573 (NSCLC), KRAS p.G12C, PIK3CA p.K111E; read-out: Growth inhibition (IC50: nmol/L)
Procedure: as §3

[14] = tested on: MCF7 cells (control and NF1 knockdown); experiment: immunoblotting of target inhibition and apoptosis induction; type: cell-based, human
Procedure: (§4) To investigate the mechanism of action of Compound (1) in inhibiting the growth of NF1 knockdown breast cancer cells, Compound (1), trametinib, Alpelisib, and fulvestrant were exposed to NF1-knockdown MCF7 and T47D cells at indicated final concentration for 24 hours. NF1, pPRAS40 Thr246, pYB1 Ser102, pS6RP Ser235/236, ERα, and cleaved PARP were detected by immunoblotting.

[15] = tested on: T47D cells (control and NF1 knockdown); experiment: as above; type: cell-based
Procedure: as §4

[16] = tested on: cancer cell lines derived from various human cancer origins; experiment: cell growth inhibition assay, cell panel, CellTiter Glo 2.0; type: cell-based; settings: 72 hour, FIG. 4A
Procedure: Cell growth inhibition assay was conducted according to 72 hour-standard protocol by CellTiter Glo 2.0 Assay.

[17] = tested on: PTEN-mutated HEC-6 cells; experiment: dose-dependent apoptosis induction; type: cell-based, human; settings: HEC-6, 48 hour, compared to control
[18] = tested on: PTEN-mutated MFE-319 cells; experiment: dose-dependent apoptosis induction; type: cell-based, human; settings: MFE-319, 48 hour, compared to control
[19] = tested on: SW1573 human lung tumor xenografts; settings: for T/C ratio (%): Day 15; for Number of deaths / Tumor volume (mm^3) Day 15 Mean ± SE: qd Day 1-14, po
[20] = tested on: AsPC-1 human pancreatic tumor xenografts; settings: for T/C ratio (%): Day 22; for Tumor volume (mm^3) Day 22 Mean ± SE: qd Day 1-21, po
Procedure: All treatments were administered every day by oral gavage. The tumor volumes and body weights of animals were recorded.

[21] = tested on: LU65 human lung tumor xenografts; experiment: antitumor effect in mice with LU65 xenograft tumors
Procedure: The tumor volumes and body weights of animals were recorded.

SMILES: CC(C)(C)NCCNc1ccc(-c2nnc(C(F)(F)F)o2)nc1C1CCN(c2ncnc3c2C(C)(C)C(=O)N3)CC1 [Compound (1), 4-(4-(3-((2-(tert-butylamino)ethyl)amino)-6-(5-(trifluoromethyl)-1,3,4-oxadiazol-2-yl)pyridin-2-yl)piperidin-1-yl)-5,5-dimethyl-5H-pyrolo[2,3-d]pyrimidin-6(7H)-one]
- IC50 [1]: 128 nM
- IC50 [2]: 344 nM
- IC50 [3]: 157 nM
- IC50 [4]: 355 nM
- IC50 [5]: 70 nM
- IC50 [6]: 2810 nM
- IC50 [7]: 844 nM
- IC50 [8]: 118 nM
- IC50 [9]: < 1000 nM
- IC50 [10]: 184 nmol/L
- IC50 [11]: 316 nmol/L
- IC50 [12]: 92.9 nmol/L
- IC50 [13]: 139 nmol/L
- signals of pPRAS40, pYB1, and pS6RP (target inhibition) ([14]; MCF7, control and NF1 knockdown, 24 hours, immunoblot): decreased the signals of pPRAS40, pYB1, and pS6RP in a concentration-dependent manner
- apoptosis induction (cleaved PARP signal) ([14]; MCF7 NF1 knockdown cells versus control cells): did not exhibit the attenuation of apoptosis induction
- apoptosis induction (cleaved PARP signal) ([14]; MCF7 control cells (non-targeting siRNA), single agent): induced apoptosis
- apoptosis induction (cleaved PARP signal) ([15]; T47D NF1 knockdown cells versus control cells): remarkably higher level in NF1 knockdown cells than control cells
- signals of pPRAS40, pYB1, and pS6RP (target inhibition) ([15]; T47D, control and NF1 knockdown, 24 hours, immunoblot): decreased the signals of pPRAS40, pYB1, and pS6RP in a concentration-dependent manner
- growth inhibition in cancer cell panel [16]: potent growth inhibition
- levels of cleaved caspase-3 and cleaved PARP [17]: increased cleaved caspase-3 and cleaved PARP in a concentration dependent manner
- levels of cleaved caspase-3 and cleaved PARP [18]: increased cleaved caspase-3 and cleaved PARP in a concentration dependent manner
- T/C ratio (%) ([19]; 30 mg/kg/day): 55%
- Number of deaths ([19]; 30 mg/kg/day): 0
- Tumor volume (mm^3) Day 15 Mean ± SE ([19]; 30 mg/kg/day): 438.6 ± 81.1 mm^3
- T/C ratio (%) ([19]; 60 mg/kg/day): 38%
- Number of deaths ([19]; 60 mg/kg/day): 0
- Tumor volume (mm^3) Day 15 Mean ± SE ([19]; 60 mg/kg/day): 305.6 ± 33.0 mm^3
- Number of deaths ([20]; 40 mg/kg/day): 0
- T/C ratio (%) ([20]; 40 mg/kg/day): 91%
- Tumor volume (mm^3) Day 22 Mean ± SE ([20]; 40 mg/kg/day): 860.1 ± 112.1 mm^3
- Number of deaths ([20]; 80 mg/kg/day): 0
- T/C ratio (%) ([20]; 80 mg/kg/day): 69%
- Tumor volume (mm^3) Day 22 Mean ± SE ([20]; 80 mg/kg/day): 648.0 ± 51.7 mm^3
- weight reduction or tolerability ([20]; mouse, in vivo): no significant changes in weight reduction or tolerability
- Number of deaths ([21]; 80 mg/kg/day): 0
- T/C ratio (%) ([21]; 80 mg/kg/day, Day 13): 75%
- Tumor volume (mm^3) Day 13 Mean ± SE ([21]; 80 mg/kg/day, qd, po): 1724.3 ± 91.1 mm^3
- tolerability (body weight changes) ([21]; throughout the study period): well tolerated
